According to patent US3935313A, “Pharmaceutical composition containing N-(3-diethyl-aminopropyl)-4-nitro-1-oxide-pyridine-2-carboxamide and process for the treatment of hypertension therewith” (Aron-Samuel; Jan Marcel Didier, priority 1971, dated 1976):

Tests used:
[1] = Chronic toxicity, 6 months, Rhesus monkeys; type: in vivo; details: up to maximum dose tested 400 mg/kg
Teratogenicity in rats = type: in vivo; details: 600 mg/kg
[2] = system: rats made hypertensive by implantation of two 25 mg deoxycorticosterone pellets combined with a sodium enriched diet; experiment: Anti-hypertensive effect in deoxycorticosterone/sodium hypertensive rats; type: in vivo
Procedure: (§1) The anti-hypertensive effect was investigated:
2. in rats made hypertensive by implantation of two 25 mg deoxycorticosterone pellets combined with a sodium enriched diet;

hypertensive subjects [3] = experiment: Treatment of hypertensive subjects with the compound in combination with other anti-hypertensive materials; type: in vivo, Man
Procedure: Combinations of the compound of this invention with other anti-hypertensiveagents were also investigated.
The most important combination is that with diuretic drugs, as predicted from the efficiency data provided by the pharmacological investigation. A reduction of the dosage of compound of about 50% and/or a three-fold duration of the action are obtained.
Dosage of compound administered: 5 tablets containing 400 mg active compound daily during 30 days. Associated treatment: salt-free diet, potassium chloride, furosemide: one 40 mg tablet, 3 times a week.
Dosage of compound administered: 5 tablets containing 400 mg active material, daily during 30 days. Associated treatment: potassium chloride, altizide: 15 mg; spironolactone: 25 mg.
Treatment during one month with the compound of this invention: 4 tablets daily, containing each 400 mg active ingredient, taken two at a time, plus 4 tablets daily of α-methyl dopa, containing each 250 mg active ingredient, taken two at a time.

[4] = system: dogs made hypertensive by the bilateral destruction of the sensory endings of the sino-carotid area; experiment: Anti-hypertensive effect in dogs with destroyed sino-carotid sensory endings; type: in vivo
Source text: as §1
1. in dogs made hypertensive by the bilateral destruction of the sensory endings of the sino-carotid area;

[5] = Chronic toxicity, 6 months, rats; type: in vivo; details: up to maximum dose tested 400 mg/kg
normotensive subjects = experiment: Effects in normotensive subjects; type: in vivo, Man
Procedure: Prior to the therapeutic tests, toxicological and clinical pharmacological investigations were conducted in normotensive Man. […] The systolic pressure is depressed by 2 to 4 cm of mercury, while the diastolic pressure is depressed by 2 cm, on the average.
Dosage of compound administered: 1 tablet containing 400 mg active ingredient during 1 week, 2 tablets during 1 week, 3 tablets during 3 weeks.
Dosage of compound administered: 1 tablets containing 400 mg active ingredient during 3 weeks, 2 tablets during the 5 following weeks.

[6] = Acute toxicity (method of Lichtfield and Wilcoxon); details: in vivo
Source text: The compound used for such tests is the hydrochloride (LA 2511).

hypertensive subjects [7] = experiment: Therapeutic effects in hypertensive subjects, compound alone
Procedure: About a hundred patients were treated with the compound during several months.
The compound was tested alone at dosages from 300 mg to 5 g daily. […] The results just set forth relate to determinations made with the patients in a recumbent position.

[8] = system: rats made hypertensive according to Goldblatt's method; experiment: Anti-hypertensive effect in Goldblatt hypertensive rats; type: in vivo
Source text: as §1
3. in rats made hypertensive according to Goldblatt's method (unilateral renal arterial constriction with contralateral nephrectomy).

[9] = system: patients with true hypertension; experiment: Clinical experimentation involving 22 hospital patients; type: in vivo, Man; details: of 22 patients; criteria: systolic L1, diastolic L2
Procedure: Clinical experimentation involving 22 hospital patients.
Procedure: The patients selected suffer from true hypertension involving both systolic pressure and diastolic pressure. Before starting treatment with the compound, it was ascertained, during a period of time of 8 days, in the absence of any hypotensive treatment, that this hypertension was stable in the morning, at noon and in the evening, in standing, sitting and recumbent positions.
1. Effect on blood pressure: the result was evaluated on the basis of the blood pressure depression, expressed as cm of mercury, according to the following criteria: Result Nil Fair Good Very good __________________________________________________________________________ Systolic pressure depression 0 < 3 cm 3-4 cm > 4 cm Diastolic pressure depression 0 <1.5 cm 1.5-2 cm >2 cm __________________________________________________________________________
2. Effect on functional signs: headaches, dizziness, floating specks, ear buzzing.

[10] = Teratogenicity in rabbits; type: in vivo; details: 200 mg/kg
hypertensive subjects [11] = experiment: Treatment of a hypertensive patient with α-methyldopa alone; type: in vivo, Man; details: TRU... Yves
Procedure: Strong functional signs (headaches, dizziness). Treated during one month with α-methyldopa: 2, then 4, then 6 tablets per day, containing each 250 mg active ingredient.

[12] = GAU... Albert, 5 x 400 mg daily 30 days + altizide 15 mg, spironolactone 25 mg, potassium chloride, prior 21/13
[13] = GAU... Albert, + altizide, spironolactone
[14] = SUF... Auguste, 5 x 400 mg daily 30 days + furosemide 40 mg 3 times a week, potassium chloride, salt-free diet, prior 24/12
[15] = TRU... Yves, 4 x 400 mg daily + α-methyldopa 4 x 250 mg daily, one month, after α-methyldopa alone 21/111/2
[16] = combination with diuretic drugs
[17] = oral, 200 mg to 5 g daily, normotensive
[18] = fraction of subjects, alone, 300 mg to 5 g daily, recumbent
[19] = more than half the subjects, alone, 300 mg to 5 g daily, recumbent
[20] = one-fourth of the patients, alone, 300 mg to 5 g daily, recumbent
[21] = use as anti-hypertensive material in Man

For `CCN(CC)CCCNC(=O)c1cc([N+](=O)[O-])cc[n+]1[O-]` [LA 2511, N-(3-diethylaminopropyl)-4-nitro-1-oxide-pyridine-2-carboxamide], the “toxic effect on chronic treatment” value [1] was “no toxic effect”, the teratogenic effect (Teratogenicity in rats) was “No teratogenic effect” and the anti-hypertensive efficiency [2] was “substantial consistent efficiency”. The “blood pressure after treatment, standing” value (hypertensive subjects [3]; GAU... Albert, 5 x 400 mg daily 30 days + altizide 15 mg, spironolactone 25 mg, potassium chloride, prior 20/121/2) was 14/9, the “blood pressure after treatment, recumbent” value (hypertensive subjects [3]; [12]) was 16/10 and the “blood pressure after treatment, sitting” value (hypertensive subjects [3]; [12]) was 16/10. For the same compound, the digestive tolerance (hypertensive subjects [3]; [13]) was “Fair digestive tolerance”, the systemic tolerance (hypertensive subjects [3]; [13]) was “Very good systemic tolerance” and the functional signs (hypertensive subjects [3]; GAU... Albert, + altizide, spironolactone, floating specks, headaches, dizziness, ear-buzzing) was “Improvement of the functional signs”. For the same compound, the “blood pressure after treatment, sitting” value (hypertensive subjects [3]; [14]) was 18/10, the “blood pressure after treatment, standing” value (hypertensive subjects [3]; [14]) was 17/9 and the “blood pressure after treatment, recumbent” value (hypertensive subjects [3]; SUF... Auguste, 5 x 400 mg daily 30 days + furosemide 40 mg 3 times a week, potassium chloride, salt-free diet, prior 24/13) was 18/10. For the same compound, the “digestive and systemic tolerance” value (hypertensive subjects [3]; SUF... Auguste, + furosemide) was “Very good digestive and systemic tolerance”, the functional signs (hypertensive subjects [3]; SUF... Auguste, + furosemide, floating specks, headaches, ear-buzzing) was “Marked decrease of the functional signs” and the “blood pressure after treatment, standing” value (hypertensive subjects [3]; TRU... Yves, 4 x 400 mg daily + α-methyldopa 4 x 250 mg daily, one month, after α-methyldopa alone 20/11) was 18/9. For the same compound, the “blood pressure after treatment, recumbent” value (hypertensive subjects [3]; [15]) was 19/101/2, the “blood pressure after treatment, sitting” value (hypertensive subjects [3]; [15]) was 19/10 and the functional signs (hypertensive subjects [3]; TRU... Yves, + α-methyldopa, particularly the headaches) was “Marked decrease of the functional signs”. The “duration of the action” value (hypertensive subjects [3]; [16]) was “three-fold”, the “reduction of the dosage of compound” value (hypertensive subjects [3]; [16]) was “about 50%” and the “efficiency of combination with diuretics” value (hypertensive subjects [3]; combination with diuretics) was “particularly efficient combination”. For the same compound, the safety of combination (hypertensive subjects [3]; combined with other anti-hypertensive materials currently used) was “safely be combined”, the “anti-hypertensive efficiency in combination with diuretics” value ([4]; in combination with diuretics, stated for the experimental hypertension models together) was “efficiency is extended” and the anti-hypertensive efficiency ([4]; sino-carotid denervated hypertensive dogs) was “substantial consistent efficiency”. For the same compound, the “toxic effect on chronic treatment” value [5] was “no toxic effect”, the “blood pressure after treatment, recumbent, evening” value (normotensive subjects; CHA... Paul, 400 mg tablets, 1 for 3 weeks, 2 for 5 weeks, initial 13/8) was 11/6 and the “blood pressure after treatment, recumbent, morning” value (normotensive subjects; CHA... Paul, 400 mg tablets, 1 for 3 weeks, 2 for 5 weeks, initial 14/8) was 12/6. For the same compound, the tolerance (normotensive subjects; CHA... Paul, 8 weeks) was “Excellent tolerance”, the tolerance (normotensive subjects; VUI... Robert, 5 weeks) was “Excellent tolerance” and the “depression of the blood pressure” value (normotensive subjects; [17]) was “moderate gradual depression”. The “influence on the heart” value (normotensive subjects; [17]) was “No deleterious influence”, the systolic pressure depression (normotensive subjects; [17]) was 2 to 4 cm of mercury and the diastolic pressure depression (normotensive subjects; oral, 200 mg to 5 g daily, normotensive, on the average) was 2 cm. For the same compound, the “depression of blood pressure under orthostatic conditions” value (normotensive subjects; oral, 200 mg to 5 g daily, normotensive, orthostatic) was “more substantial depression”, the “modifications in the electrocardiogram and numerous biological tests” value (normotensive subjects; oral, 200 mg to 5 g daily, blood count, sedimentation rate, phosphatases, transaminases, azotemia, glycemia, creatinine clearance, ions, lipids etc.) was “No modifications were ever noted” and the LD50 [6] was 2000 mg/kg. For the same compound, the systemic tolerance (hypertensive subjects [7]; BLA... Isaac) was “Very good systemic tolerance”, the “taste on intake of the tablet” value (hypertensive subjects [7]; BLA... Isaac) was “Bitter taste” and the “blood pressure after treatment, recumbent” value (hypertensive subjects [7]; BLA... Isaac, 6 then 4 tablets of 400 mg daily, 15 days each, prior 20/13) was 19/1. For the same compound, the “blood pressure after treatment, sitting” value (hypertensive subjects [7]; BLA... Isaac, 6 then 4 tablets of 400 mg daily, 15 days each, prior 20/121/2) was 19/10, the “blood pressure after treatment, standing” value (hypertensive subjects [7]; BLA... Isaac, 6 then 4 tablets of 400 mg daily, 15 days each, prior 191/2/10) was 141/2/10 and the tolerance (hypertensive subjects [7]; PER... Robert) was “Excellent tolerance”. The “blood pressure after treatment, sitting” value (hypertensive subjects [7]; PER... Robert, 2, 4, then 6 tablets of 400 mg per day, 28 days, prior 21/12) was 161/2/10, the “blood pressure after treatment, standing” value (hypertensive subjects [7]; PER... Robert, 2, 4, then 6 tablets of 400 mg per day, 28 days, prior 201/2/12) was 17/10 and the “blood pressure after treatment, recumbent” value (hypertensive subjects [7]; PER... Robert, 2, 4, then 6 tablets of 400 mg per day, 28 days, prior 211/2/12) was 15/10. The functional signs (hypertensive subjects [7]; PER... Robert, headaches, ear-buzzing) was “Disappearance of the functional signs”, the “return of blood pressure to former levels after interruption” value (hypertensive subjects [7]; after interruption of administration) was 3 to 4 days and the “onset of the depression” value (hypertensive subjects [7]; alone, 300 mg to 5 g daily) was “within a few hours or a few days”. For the same compound, the “troublesome orthostatic hypotension induced fits of faintness” value (hypertensive subjects [7]; alone, 300 mg to 5 g daily) was “None of the subjects”, the “blood pressure in standing position” value (hypertensive subjects [7]; alone, 300 mg to 5 g daily, standing) was “more highly depressed, becoming close to normal or even attaining the normal value” and the side-effect (hypertensive subjects [7]; disappear when ingested in the middle of a meal and/or dosage decreased) was “a few cases of gastric pains and nausea”. The “patients with moderate depression” value (hypertensive subjects [7]; fraction of patients, alone, 300 mg to 5 g daily, recumbent) was “One-fourth”, the “hypertensive subjects with substantial depression of the blood pressure” value (hypertensive subjects [7]; [18]) was “more than half” and the subjects non-influenced (hypertensive subjects [7]; [18]) was “Less than one-fourth”. For the same compound, the “diastolic pressure depression in subjects with substantial depression” value (hypertensive subjects [7]; [19]) was > 2 cm of mercury, the “systolic pressure depression in subjects with substantial depression” value (hypertensive subjects [7]; [19]) was > 4 cm of mercury and the “diastolic pressure depression in patients with moderate depression” value (hypertensive subjects [7]; [20]) was “about 1 cm”. The “systolic pressure depression in patients with moderate depression” value (hypertensive subjects [7]; [20]) was “about 2 cm”, the action (hypertensive subjects [7]; oral, 200 mg to 5 g daily) was “rapid but gradual action” and the toxicity and tolerance (hypertensive subjects [7]; oral, 200 mg to 5 g daily) was “free from toxicity, well tolerated”. The “effects on blood pressure versus diuretic drugs, α-methyldopa and other hypotensive agents” value (hypertensive subjects [7]; particularly with respect to the diastolic pressure) was “much more rapid and much more positive”, the “effect on the diastolic pressure in Man” value (hypertensive subjects [7]; [21]) was “well established” and the “efficiency in Man” value (hypertensive subjects [7]; [21]) was “excellent efficiency”. For the same compound, the “toxicity in Man” value (hypertensive subjects [7]; [21]) was “free from toxicity”, the anti-hypertensive efficiency [8] was “substantial consistent efficiency” and the “number of "fair" results” value [9] was 5 results. The “number of "good" and "very good" results” value [9] was 13 results, the “number of "nil" results” value [9] was 4 results and the teratogenic effect [10] was “No teratogenic effect”.

In the case of `C[C@](N)(Cc1ccc(O)c(O)c1)C(=O)O` [α-methyldopa], the “blood pressure after treatment with α-methyldopa, standing” value (hypertensive subjects [11]; 2, 4, then 6 tablets of 250 mg per day, one month, prior 22/12) is reported as 20/11, the “blood pressure after treatment with α-methyldopa, recumbent” value (hypertensive subjects [11]; 2, 4, then 6 tablets of 250 mg per day, one month, prior 23/12) is reported as 21/111/2 and the “blood pressure after treatment with α-methyldopa, sitting” value (hypertensive subjects [11]; 2, 4, then 6 tablets of 250 mg per day, one month, prior 23/111/2) is reported as 21/111/2. The functional signs (hypertensive subjects [11]; α-methyldopa alone, headaches, dizziness) was “Slight decrease of the functional signs”.
